“Also recorded” adds a separate entry of the source.
Columns and labels:
ERα = ERα detection by immunochemical staining of DMBA/progestin-induced mammary carcinomas; format: in vivo; details: wild-type FVB mice, medroxyprogesterone/DMBA-induced carcinogenesis, 40 mg/kg subcutaneously, weekly, for 12 weeks, rabbit polyclonal antibody
Method: FIG. 1 illustrates ER detection by immunochemical staining with a rabbit polyclonal antibody of dimethylbenz(α)anthracene (DMBA)/progestin-induced mammary carcinomas of wild-type FVB mice, transgenic MMTV-Pax8PPARγ FVB mice and GW9662-treated mice, with 40 mg/kg, subcutaneously, weekly, for 12 weeks.
Mammary carcinogenesis was induced in female wild-type FVB/N or MMTV-Pax8PPARγ transgenic mice purchased from Charles River Laboratories (Wilmington, Mass.) by subcutaneous injection of 600 mg/kg medroxyprogesterone acetate suspension (150 mg/ml, Sicor Pharmaceuticals Inc., Irvine, Calif.), followed one week later by four weekly oral doses of 1 mg dimethylbenz(a)anthracene (DMBA) dissolved in cottonseed oil (10 mg/ml). Following the last dose of DMBA, mice were injected subcutaneously once a week with 40 mg/kg GW9662 dissolved in cottonseed oil (10 mg/ml). […]
Mammary carcinomas from transgenic MMTV-Pax8PPARγ FVB mice stained intensely for ERα, particularly in the basal layer of cells, as compared to low ERα staining in ductal epithelium from wild-type FVB mice (see FIG. 1). […] ERα was detected by immunochemical staining with a rabbit polyclonal antibody (Santa Cruz Biotechnology, sc-542) diluted 1:1000.

mammary tumors = assay: Mammary tumor formation after carcinogenesis in Pax8PPARγ transgenic mice; format: in vivo; details: MMTV-Pax8PPARγ transgenic mice, ER(+) carcinomas; 200 mg/kg subcutaneously once a week for three months after carcinogen administration
Method: FIG. 2 is a bar graph showing the total number of mammary tumors appearing in transgenic MMTV-Pax8PPARγ FVB mice treated with either vehicle or ERα antagonist fulvestrant, 200 mg/kg subcutaneously once per week for three months after carcinogen administration.
Mammary carcinogenesis (see, e.g., Yin et al., Characterization of medroxyprogesterone and DMBA-induced multilineage mammary tumors by gene expression. Mol. Carcinogenesis 42:pp. 42-50, (2005)) was induced in Pax8PPARγ transgenic mice, which mammary carcinomas are ER(+) and were treated once a week for three months with the ER antagonist fulvestrant at a dose of 200 mg/kg administered subcutaneously in an oil emulsion. […] Each experimental group consisted of 6 mice. FIG. 2 indicates the total number of mammary tumors appearing three months after carcinogen administration.

SMILES	ERα expression (immunochemical staining) in mammary carcinomas (ERα)	tumor formation (total number of mammary tumors) (mammary tumors)
O=C(Nc1ccccc1)c1cc([N+](=O)[O-])ccc1Cl [GW9662, 2-Chloro-5-nitrobenzanilide]	substantial ERα staining; also recorded: pattern of ERα expression similar to MMTV-Pax8PPARγ mice	
C[C@]12CC[C@@H]3c4ccc(O)cc4C[C@@H](CCCCCCCCC[S+]([O-])CCCC(F)(F)C(F)(F)F)[C@H]3[C@@H]1CC[C@@H]2O (some centres unmarked) [fulvestrant]		completely inhibited tumor formation

Source: patent US20080206194A1, “Method for the treatment of breast cancer” (priority 2007, published 2008)
